Results from US11389415B2, “Methods of regulating cannabinoid receptor activity-related disorders and diseases” (The United States of America as represented by the …, priority 2012, dated 2022).

Tested on: rat C6 glioma cells
Test: 3H-Thymidine incorporation in rat C6 glioma cells
Format: cell-based
Conditions: 24 hours
Method: Cell culture. The rat-derived C6 glioma cell line was obtained from the American Type Culture Collection (Manassas, Va.). The cells were routinely maintained in DMEM supplemented with L-glutamine, 1% penicillin/streptomycin solution, and 10% FBS in a humidified CO2 incubator at 37° C.
3H-Thymidine incorporation. C6 glioma cells were seeded in 12-well plates at ˜5×10^4 cells/well and incubated for 24 hours followed by a second 24-hour incubation with various concentrations of MNF. Radiolabeled thymidine (10 Ci/mmol; PerkinElmer Life and Analytical Sciences, Waltham, Mass.) was added at 1 μCi per well for 16 hours and its incorporation into DNA was then measured. Each treatment group was performed in triplicate and three independent studies were carried out.

For `COc1ccc(C[C@@H](C)NC[C@H](O)c2cc(O)cc(O)c2)c2ccccc12` [(R,R′)-MNF, (R,R′)-4′-methoxy-1-naphthylfenoterol], the “inhibition of C6 cell growth / reduction in mitogenesis” value (20 nM) was 54.3±1.2% and the IC50 (then [3H]-thymidine 16 hours, read-out: IC50, growth inhibition of rat C6 glioma cell line) was roughly 1 nM.
